Results as given in the kinase profiling compilation of Christmann-Franck et al. (2016).

Assays:
Test in all cases: radiometric filter-binding kinase assay, Kinase HotSpot
Details in all cases: compound 0.5 µM; ATP 10 µM
[1] = target: CLK4 (human) (UniProt Q9HAZ1)
[2] = target: SRC (human) (UniProt P12931)
[3] = target: GSK3A (human) (UniProt P49840)
[4] = target: LIMK1 (human) (UniProt P53667)
[5] = target: RPS6KA2 KD1 KD2 (human) (UniProt Q15349)
[6] = target: SGK2 (human) (UniProt Q9HBY8)
[7] = target: PRKCG (human) (UniProt P05129)
[8] = target: CAMK2D (human) (UniProt Q13557)
[9] = target: NEK4 (human) (UniProt P51957)
[10] = target: MAP2K2 (human) (UniProt P36507)
[11] = target: LRRK2 (human) (UniProt Q5S007)
LRRK2 (human), sequence (Q5S007 whole entry, looked up): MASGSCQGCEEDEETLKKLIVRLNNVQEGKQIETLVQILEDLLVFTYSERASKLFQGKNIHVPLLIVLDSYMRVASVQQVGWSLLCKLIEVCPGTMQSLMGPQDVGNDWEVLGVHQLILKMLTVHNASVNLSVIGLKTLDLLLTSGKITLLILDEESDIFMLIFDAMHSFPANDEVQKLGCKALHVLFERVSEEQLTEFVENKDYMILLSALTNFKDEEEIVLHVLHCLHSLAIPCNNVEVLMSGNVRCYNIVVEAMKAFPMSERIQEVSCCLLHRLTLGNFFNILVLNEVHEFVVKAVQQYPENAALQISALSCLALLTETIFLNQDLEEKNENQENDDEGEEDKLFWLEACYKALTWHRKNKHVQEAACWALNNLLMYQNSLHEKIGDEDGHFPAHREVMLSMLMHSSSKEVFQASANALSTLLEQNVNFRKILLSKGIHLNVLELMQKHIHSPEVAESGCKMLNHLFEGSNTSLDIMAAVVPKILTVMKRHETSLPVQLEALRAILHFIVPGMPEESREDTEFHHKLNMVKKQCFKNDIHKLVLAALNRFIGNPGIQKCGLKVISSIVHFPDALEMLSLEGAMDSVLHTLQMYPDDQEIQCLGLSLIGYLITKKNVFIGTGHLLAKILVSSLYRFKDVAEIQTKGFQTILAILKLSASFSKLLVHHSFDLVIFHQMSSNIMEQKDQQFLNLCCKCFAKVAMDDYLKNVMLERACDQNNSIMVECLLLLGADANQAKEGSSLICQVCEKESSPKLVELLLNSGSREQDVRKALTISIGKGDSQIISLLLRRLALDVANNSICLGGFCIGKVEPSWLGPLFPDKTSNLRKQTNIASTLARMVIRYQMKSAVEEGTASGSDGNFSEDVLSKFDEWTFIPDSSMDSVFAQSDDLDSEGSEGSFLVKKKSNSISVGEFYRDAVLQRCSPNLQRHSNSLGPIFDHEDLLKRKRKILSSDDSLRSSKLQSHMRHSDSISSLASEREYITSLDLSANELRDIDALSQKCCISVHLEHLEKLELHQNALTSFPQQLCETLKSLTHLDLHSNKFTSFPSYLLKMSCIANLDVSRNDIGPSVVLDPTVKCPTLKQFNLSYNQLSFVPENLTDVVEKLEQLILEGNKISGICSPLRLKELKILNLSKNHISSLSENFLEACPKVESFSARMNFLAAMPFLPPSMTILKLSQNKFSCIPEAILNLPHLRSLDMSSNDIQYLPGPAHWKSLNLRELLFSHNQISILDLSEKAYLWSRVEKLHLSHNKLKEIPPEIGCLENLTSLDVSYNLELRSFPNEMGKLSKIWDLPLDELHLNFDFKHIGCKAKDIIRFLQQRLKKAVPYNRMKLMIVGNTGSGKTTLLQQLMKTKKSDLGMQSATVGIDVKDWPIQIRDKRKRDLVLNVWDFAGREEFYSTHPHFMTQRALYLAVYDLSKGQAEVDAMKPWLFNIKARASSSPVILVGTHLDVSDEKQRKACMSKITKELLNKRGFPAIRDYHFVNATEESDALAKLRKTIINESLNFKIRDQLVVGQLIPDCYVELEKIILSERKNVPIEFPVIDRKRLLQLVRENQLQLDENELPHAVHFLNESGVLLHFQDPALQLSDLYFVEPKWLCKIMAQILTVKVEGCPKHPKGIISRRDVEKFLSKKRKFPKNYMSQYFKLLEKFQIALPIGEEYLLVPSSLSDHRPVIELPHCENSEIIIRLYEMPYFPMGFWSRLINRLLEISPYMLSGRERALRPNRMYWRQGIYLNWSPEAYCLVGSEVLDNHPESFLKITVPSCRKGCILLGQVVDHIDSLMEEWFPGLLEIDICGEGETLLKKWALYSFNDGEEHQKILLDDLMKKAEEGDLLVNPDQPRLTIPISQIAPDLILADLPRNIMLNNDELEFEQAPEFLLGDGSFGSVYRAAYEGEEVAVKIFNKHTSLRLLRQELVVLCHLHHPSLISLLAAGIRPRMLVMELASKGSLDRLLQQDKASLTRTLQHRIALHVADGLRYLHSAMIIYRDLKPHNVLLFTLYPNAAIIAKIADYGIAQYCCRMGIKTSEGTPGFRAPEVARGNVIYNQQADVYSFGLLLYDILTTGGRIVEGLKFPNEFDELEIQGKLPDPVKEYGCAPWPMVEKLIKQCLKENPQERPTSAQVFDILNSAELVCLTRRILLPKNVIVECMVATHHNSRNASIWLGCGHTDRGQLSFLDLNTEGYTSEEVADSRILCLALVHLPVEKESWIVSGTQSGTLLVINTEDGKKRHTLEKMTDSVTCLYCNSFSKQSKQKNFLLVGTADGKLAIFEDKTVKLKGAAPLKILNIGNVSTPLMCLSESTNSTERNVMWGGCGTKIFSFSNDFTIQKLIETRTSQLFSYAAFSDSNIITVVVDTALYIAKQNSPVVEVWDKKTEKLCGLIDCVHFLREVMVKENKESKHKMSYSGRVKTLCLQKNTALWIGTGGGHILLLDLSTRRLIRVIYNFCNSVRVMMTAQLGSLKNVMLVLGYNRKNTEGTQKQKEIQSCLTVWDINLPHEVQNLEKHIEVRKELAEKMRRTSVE

[12] = target: PTK2B (human) (UniProt Q14289)
[13] = target: SRPK2 (human) (UniProt P78362)
[14] = target: NUAK2 (human) (UniProt Q9H093)
[15] = target: CSNK1D (human) (UniProt P48730)
[16] = target: PAK1 (human) (UniProt Q13153)
[17] = target: PDGFRB (human) (UniProt P09619)
[18] = target: DSTYK (human) (UniProt Q6XUX3)
[19] = target: AKT2 (human) (UniProt P31751)
AKT2 (human), sequence (P31751 whole entry, looked up): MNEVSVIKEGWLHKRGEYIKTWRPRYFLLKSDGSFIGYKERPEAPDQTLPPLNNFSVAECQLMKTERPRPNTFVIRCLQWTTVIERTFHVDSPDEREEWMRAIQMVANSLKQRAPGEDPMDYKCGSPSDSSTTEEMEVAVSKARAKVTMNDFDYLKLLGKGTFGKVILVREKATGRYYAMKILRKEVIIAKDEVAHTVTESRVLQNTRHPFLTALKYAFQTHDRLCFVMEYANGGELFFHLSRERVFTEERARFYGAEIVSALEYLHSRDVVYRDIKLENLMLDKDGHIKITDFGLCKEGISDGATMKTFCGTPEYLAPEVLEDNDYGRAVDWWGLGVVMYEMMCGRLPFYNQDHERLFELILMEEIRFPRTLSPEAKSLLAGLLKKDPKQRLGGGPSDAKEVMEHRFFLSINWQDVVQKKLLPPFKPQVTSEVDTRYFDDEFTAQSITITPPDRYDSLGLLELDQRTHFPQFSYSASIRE

[20] = target: TAOK3 (human) (UniProt Q9H2K8)
[21] = target: CDK5 CDK5R1 p25 (human) (UniProt Q00535+Q15078)
[22] = target: EPHB4 (human) (UniProt P54760)
[23] = target: BMX (human) (UniProt P51813)
[24] = target: PTK2 (human) (UniProt Q05397)
[25] = target: PTK6 (human) (UniProt Q13882)
[26] = target: BRSK1 (human) (UniProt Q8TDC3)
[27] = target: TEC (human) (UniProt P42680)
TEC (human), sequence (P42680 whole entry, looked up): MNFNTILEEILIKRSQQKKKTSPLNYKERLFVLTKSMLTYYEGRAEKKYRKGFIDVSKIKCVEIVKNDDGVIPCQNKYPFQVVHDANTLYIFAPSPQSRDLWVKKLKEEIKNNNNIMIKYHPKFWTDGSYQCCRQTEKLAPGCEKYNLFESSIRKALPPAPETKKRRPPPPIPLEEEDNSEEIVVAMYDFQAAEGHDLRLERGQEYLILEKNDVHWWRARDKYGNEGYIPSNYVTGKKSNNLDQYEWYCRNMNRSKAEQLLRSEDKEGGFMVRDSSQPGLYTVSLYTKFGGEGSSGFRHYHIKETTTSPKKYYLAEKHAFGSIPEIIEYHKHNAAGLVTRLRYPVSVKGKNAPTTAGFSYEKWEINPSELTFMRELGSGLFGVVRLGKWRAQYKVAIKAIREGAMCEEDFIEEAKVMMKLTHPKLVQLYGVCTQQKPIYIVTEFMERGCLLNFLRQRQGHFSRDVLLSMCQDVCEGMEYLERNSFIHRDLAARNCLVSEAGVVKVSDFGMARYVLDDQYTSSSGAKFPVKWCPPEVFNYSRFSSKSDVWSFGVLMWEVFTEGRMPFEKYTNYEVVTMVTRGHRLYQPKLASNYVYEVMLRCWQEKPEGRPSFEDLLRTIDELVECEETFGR

[28] = target: ULK2 (human) (UniProt Q8IYT8)
[29] = target: PRKCI (human) (UniProt P41743)
[30] = target: EPHA4 (human) (UniProt P54764)
[31] = target: PRKCZ (human) (UniProt Q05513)
[32] = target: STK10 (human) (UniProt O94804)
[33] = target: CDK1 CCNB1 (human) (UniProt P06493+P14635)
[34] = target: ZAP70 (human) (UniProt P43403)
[35] = target: MST4 (human) (UniProt Q9P289)
[36] = target: EPHB1 (human) (UniProt P54762)
[37] = target: NTRK1 (human) (UniProt P04629)
[38] = target: INSR (human) (UniProt P06213)
[39] = target: GRK7 (human) (UniProt Q8WTQ7)
GRK7 (human), sequence (Q8WTQ7 whole entry, looked up): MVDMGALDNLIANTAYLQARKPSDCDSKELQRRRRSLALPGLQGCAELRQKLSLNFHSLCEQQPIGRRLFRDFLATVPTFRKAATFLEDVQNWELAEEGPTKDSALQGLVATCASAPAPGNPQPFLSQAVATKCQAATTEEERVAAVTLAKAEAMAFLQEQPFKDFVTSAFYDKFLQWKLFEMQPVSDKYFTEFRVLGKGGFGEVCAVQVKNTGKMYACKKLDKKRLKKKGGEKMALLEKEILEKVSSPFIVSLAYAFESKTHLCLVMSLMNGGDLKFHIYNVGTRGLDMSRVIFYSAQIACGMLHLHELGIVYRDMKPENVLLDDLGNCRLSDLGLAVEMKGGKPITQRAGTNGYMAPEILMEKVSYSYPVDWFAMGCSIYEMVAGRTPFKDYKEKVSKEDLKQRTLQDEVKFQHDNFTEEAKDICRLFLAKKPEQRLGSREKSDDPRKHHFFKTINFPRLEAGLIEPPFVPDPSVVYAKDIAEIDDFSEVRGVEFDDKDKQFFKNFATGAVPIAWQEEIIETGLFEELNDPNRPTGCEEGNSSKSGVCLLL

[40] = target: NEK11 (human) (UniProt Q8NG66)
[41] = target: MAP3K8 (human) (UniProt P41279)
[42] = target: DAPK2 (human) (UniProt Q9UIK4)

RPS6KA2 KD1 KD2 (human), sequence (Q15349 whole entry, looked up): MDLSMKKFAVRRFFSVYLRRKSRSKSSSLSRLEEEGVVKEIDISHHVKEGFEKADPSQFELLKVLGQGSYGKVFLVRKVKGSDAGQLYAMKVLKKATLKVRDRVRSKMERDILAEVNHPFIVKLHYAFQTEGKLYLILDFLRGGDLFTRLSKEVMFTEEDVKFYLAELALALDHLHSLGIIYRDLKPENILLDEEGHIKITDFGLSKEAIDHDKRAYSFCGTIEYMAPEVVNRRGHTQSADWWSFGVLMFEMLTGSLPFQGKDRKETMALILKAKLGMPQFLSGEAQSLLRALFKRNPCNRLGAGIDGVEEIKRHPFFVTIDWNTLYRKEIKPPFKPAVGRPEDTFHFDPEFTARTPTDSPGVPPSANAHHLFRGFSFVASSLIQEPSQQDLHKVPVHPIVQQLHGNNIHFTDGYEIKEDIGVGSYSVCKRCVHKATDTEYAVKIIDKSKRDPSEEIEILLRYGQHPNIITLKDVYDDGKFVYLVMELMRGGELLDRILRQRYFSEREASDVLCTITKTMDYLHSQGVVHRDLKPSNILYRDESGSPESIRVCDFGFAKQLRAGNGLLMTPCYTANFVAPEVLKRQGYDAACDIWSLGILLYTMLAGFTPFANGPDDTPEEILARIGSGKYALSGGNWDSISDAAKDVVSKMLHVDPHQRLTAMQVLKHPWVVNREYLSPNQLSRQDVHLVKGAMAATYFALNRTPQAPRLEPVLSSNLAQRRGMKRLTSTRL

O=C(CCCc1ccc(-c2ccccc2F)cc1)Nc1ccc(O)cc1
residual activity [1]: 103% | residual activity [2]: 93.7% | residual activity [3]: 98.6% | residual activity [4]: 106% | residual activity [5]: 101% | residual activity [6]: 101% | residual activity [7]: 98% | residual activity [8]: 108% | residual activity [9]: 103% | residual activity [10]: 95.1% | residual activity [11]: 98% | residual activity [12]: 98.8% | residual activity [13]: 94.3% | residual activity [14]: 92.9% | residual activity [15]: 102% | residual activity [16]: 95.4% | residual activity [17]: 98.2% | residual activity [18]: 103% | residual activity [19]: 101% | residual activity [20]: 91.4% | residual activity [21]: 94.6% | residual activity [22]: 106% | residual activity [23]: 99.6% | residual activity [24]: 102% | residual activity [25]: 102% | residual activity [26]: 103% | residual activity [27]: 86% | residual activity [28]: 116% | residual activity [29]: 95.5% | residual activity [30]: 99.2% | residual activity [31]: 116% | residual activity [32]: 95.3% | residual activity [33]: 102% | residual activity [34]: 99.7% | residual activity [35]: 91.5% | residual activity [36]: 96.4% | residual activity [37]: 103% | residual activity [38]: 102% | residual activity [39]: 109% | residual activity [40]: 100% | residual activity [41]: 101% | residual activity [42]: 106%

Cc1nc2cc3nc(-c4cccs4)cnc3cc2n1C
residual activity [1]: 79.2% | residual activity [2]: 89.9% | residual activity [3]: 94.1% | residual activity [4]: 112% | residual activity [5]: 95% | residual activity [6]: 115% | residual activity [7]: 94.9% | residual activity [8]: 100% | residual activity [9]: 95.2% | residual activity [10]: 77.5% | residual activity [11]: 106% | residual activity [12]: 96.4% | residual activity [13]: 104% | residual activity [14]: 96.7% | residual activity [15]: 95.9% | residual activity [16]: 86.6% | residual activity [17]: 63.3% | residual activity [18]: 106% | residual activity [19]: 91.5% | residual activity [20]: 116% | residual activity [21]: 99.3% | residual activity [22]: 92.1% | residual activity [23]: 117% | residual activity [24]: 117% | residual activity [25]: 88.6% | residual activity [26]: 98.7% | residual activity [27]: 158% | residual activity [28]: 105% | residual activity [29]: 99.1% | residual activity [30]: 93.1% | residual activity [31]: 95.6% | residual activity [32]: 94.7% | residual activity [33]: 96.7% | residual activity [34]: 93.3% | residual activity [35]: 99.3% | residual activity [36]: 107% | residual activity [37]: 113% | residual activity [38]: 99.9% | residual activity [39]: 96.6% | residual activity [40]: 93.1% | residual activity [41]: 99% | residual activity [42]: 94.1%

CC(C)[C@H](CO)Nc1nc(Nc2cc(N)cc(Cl)c2)c2ncn(C(C)C)c2n1
residual activity [1]: 16.5% | residual activity [2]: 3.75% | residual activity [3]: 101% | residual activity [4]: 107% | residual activity [5]: 48.7% | residual activity [6]: 121% | residual activity [7]: 107% | residual activity [8]: 87.3% | residual activity [9]: 80.2% | residual activity [10]: 87.5% | residual activity [11]: 101% | residual activity [12]: 63.6% | residual activity [13]: 31% | residual activity [14]: 81.4% | residual activity [15]: 65.7% | residual activity [16]: 81.8% | residual activity [17]: 98.1% | residual activity [18]: 93.1% | residual activity [19]: 100% | residual activity [20]: 86.9% | residual activity [21]: 3.31% | residual activity [22]: 58.4% | residual activity [23]: 81.9% | residual activity [24]: 59.5% | residual activity [25]: 85.6% | residual activity [26]: 93.1% | residual activity [27]: 130% | residual activity [28]: 74.9% | residual activity [29]: 89.6% | residual activity [30]: 61.4% | residual activity [31]: 101% | residual activity [32]: 55.6% | residual activity [34]: 102% | residual activity [35]: 67.8% | residual activity [36]: 59.2% | residual activity [37]: 45.4% | residual activity [38]: 85% | residual activity [39]: 79.3% | residual activity [40]: 84.2% | residual activity [41]: 109% | residual activity [42]: 101%

O=C1NC(=O)C(c2cn(CCCO)c3ncccc23)=C1c1cnccn1
residual activity [1]: 100% | residual activity [2]: 78.9% | residual activity [3]: 8.56% | residual activity [4]: 96.4% | residual activity [5]: 73.2% | residual activity [6]: 96.9% | residual activity [7]: 93.1% | residual activity [8]: 101% | residual activity [9]: 85.1% | residual activity [10]: 90.3% | residual activity [11]: 90% | residual activity [12]: 94% | residual activity [13]: 97.9% | residual activity [14]: 92.3% | residual activity [15]: 99.4% | residual activity [16]: 101% | residual activity [17]: 102% | residual activity [18]: 78% | residual activity [19]: 114% | residual activity [20]: 88.2% | residual activity [21]: 103% | residual activity [22]: 95.2% | residual activity [23]: 97.8% | residual activity [24]: 101% | residual activity [25]: 101% | residual activity [26]: 89.2% | residual activity [27]: 120% | residual activity [28]: 96.7% | residual activity [29]: 87% | residual activity [30]: 99.5% | residual activity [31]: 88.5% | residual activity [32]: 104% | residual activity [33]: 81.1% | residual activity [34]: 87.8% | residual activity [35]: 78.7% | residual activity [37]: 88.1% | residual activity [38]: 92.9% | residual activity [39]: 118% | residual activity [40]: 108% | residual activity [41]: 97% | residual activity [42]: 88.4%
